# Measurements: patent US5166201A, “2β,19-ethylene bridged steroids as aromatase inhibitors” (Merrell Dow Pharmaceuticals Inc., priority 1990, dated 1992)
# Target: T1, aromatase (Homo sapiens, UniProt P11511)
# T1 construct: microsomal protein per ml of assay buffer; from tissue; host or cells: microsomes
# T1 sequence (P11511 1-503): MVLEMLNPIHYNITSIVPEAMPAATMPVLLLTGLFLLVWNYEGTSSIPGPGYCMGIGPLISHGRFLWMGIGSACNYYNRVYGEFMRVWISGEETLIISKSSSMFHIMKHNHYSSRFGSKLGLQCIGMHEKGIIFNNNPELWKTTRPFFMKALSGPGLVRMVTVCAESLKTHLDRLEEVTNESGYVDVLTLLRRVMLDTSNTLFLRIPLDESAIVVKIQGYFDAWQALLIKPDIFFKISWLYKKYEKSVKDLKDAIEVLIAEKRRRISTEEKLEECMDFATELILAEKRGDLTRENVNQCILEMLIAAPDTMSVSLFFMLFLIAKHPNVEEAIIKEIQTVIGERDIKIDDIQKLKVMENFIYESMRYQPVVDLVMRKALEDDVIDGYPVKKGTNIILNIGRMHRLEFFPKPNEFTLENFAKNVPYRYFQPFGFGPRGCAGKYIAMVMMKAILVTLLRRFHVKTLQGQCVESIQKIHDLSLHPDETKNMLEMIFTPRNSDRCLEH
# Test: time-dependent aromatase inhibition assay (preincubation, Kitz-Wilson analysis)
# Format: biochemical
# Procedure: In this assay, the inhibitor is preincubated with enzyme prior to assaying for activity in the presence of high substrate levels. A time-related decrease in enzyme activity can be indicative of irreversible binding […] a preferred method of inhibition.
# In the time-dependent assay, an amount of the enzyme inhibitor in 100 μl of the assay buffer described above which will provide assay concentrations which are usually between 1 nM and 10 μm are added to 35-ml centrifuge tubes containing 600 μl of the NADPH generating system. The preincubation is started by the addition of 700 μl of aromatase preparation, usually 300-800 μg of microsomal protein per ml of assay buffer. These preparations are mixed using a vortex mixer and incubated for 0, 5, 10 or 20 minutes at 25° C. Then 100 μl of androstenedione (-6.8 μM) containing 1β-^3 H androstenedione is added in assay buffer to provide an assay concentration of substrate (0.55 μM) which is at least ten times the Km of androstenedione (0.04 μM). Following vortexing, the enzyme incubation is continued for 10 minutes before being terminated by the addition of chloroform. The amount of radioactivity in the aqueous fraction is determined by scintillation procedures. The enzymatic activity for each concentration of inhibitor at each time period of preincubation is calculated as a percent of the "0" minute vehicle control arbitrarily set at 100%. Therefore, the present enzyme inhibition is expressed as a percentage: (100 percent minus percent enzyme activity with inhibitor present).
# Enzyme kinetic analysis utilized Kitz-Wilson plots for time-dependent assays. These analyses provide estimates of apparent Ki of inactivation which represents the inhibitor concentration required to produce half-maximal rate of enzyme inactivation. The pseudo first-order rate constant for enzyme inactivation (kcat) and the half-time of inactivation (.tau.50) of infinite inhibitor concentrations were determined. […]
compound,measurement,setting,value
"C[C@]12CC[C@H]3[C@@H](CCC4=CC(=O)[C@H]5CCC[C@]43C5)[C@@H]1CCC2=O [2β,19-(ethylene)androst-4-ene-3,17-dione]",kinact/KI,"Kitz-Wilson analysis, read-out: kcat /Ki (inactivation) ratio, index of efficiency of enzyme inactivation",558000 M⁻¹ s⁻¹
same,half-time of inactivation (.tau.50) at infinite inhibitor concentration,"Kitz-Wilson plot, microsomal aromatase preparation, 25° C.",0.87 min
same,KI (inactivation),"Kitz-Wilson plot, microsomal aromatase preparation, preincubation 0-20 min at 25° C., androstenedione 0.55 μM, read-out: apparent Ki of inactivation",23.9 nM
